This is an account of results in patent US20240228446A1, “PREPARATION METHOD FOR BICYCLIC COMPOUND AND APPLICATION AS ANTIFUNGAL AGENT” (priority 2021, published 2024).

Converted amounts (≈) assume the structure as drawn. Bounds are passed on as bounds.

Data set [1] can be described thus: Drug-drug interaction / pharmacokinetic study of single drug and combination with nifedipine by gavage. The settings on record: CD1 mice, ketoconazole 30 mg/kg alone vs ketoconazole 30 mg/kg + nifedipine 15 mg/kg.
Experimental: The dosing solution was prepared on the day of administration. An appropriate amount of nifedipine was precisely weighed into a centrifuge tube, then an appropriate volume of 0.5% MC was added thereto and vortexed to dissolve, resulting in a dosing solution with a concentration of 1.5 mg/mL.
Appropriate amounts of ketoconazole and isavuconazonium sulfate (CAS #946075-13-4) were precisely weighed and placed into separate centrifuge tubes. An appropriate volume of 0.5% MC was added to each tube and vortexed to dissolve, resulting in dosing solutions with concentrations of 3 mg/mL and 12 mg/mL, respectively.
An appropriate amount of the compound of the example of the present disclosure was precisely weighed into a centrifuge tube, then an appropriate volume of 16% SBECD was added thereto and vortexed to dissolve, resulting in a dosing solution with a concentration of 10 mg/mL.
CD1 mice, 6 to 8 weeks old, male, were divided into seven groups. […]
For data set [2], the system named is Candida albicans ATCC MYA-2876. In words: Minimal inhibitory concentration (MIC) test on fungal growth (CLSI M27, yeasts). The settings on record: lowest concentration inhibiting growth of yeast by 50%, 35° C., 24 hours, RPMI1640; for MIC: Candida albicans, read-out: MIC Candida albicans ATCC MYA-2876. It counts as cell-based. The procedure, abridged:
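Broth microdilution followed CLSI M27 in RPMI1640 buffered with 0.165 M MOPS, pH 7.0, with a final inoculum of 500–2500 CFU/mL. Eleven 2-fold compound concentrations were tested, and plates were incubated 24 h at 35 °C. MIC was the lowest concentration giving 50% growth inhibition, read visually with optional OD530 assistance.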

Data set [3] has as its system Aspergillus fumigatus ATCC MYA-4609. Kind of data set: Minimal inhibitory concentration (MIC) test on fungal growth (CLSI M38, Aspergillus). It counts as cell-based. The settings on record: lowest concentration inhibiting Aspergillus by 100%, 35° C., 48 hours, RPMI1640; for MIC: Aspergillus fumigatus, read-out: MIC Aspergillus fumigatus ATCC MYA-4609. As for the experimental part: • RPMI1640 medium: Brand: Gibco, article number: 31800-014 • Sabouraud dextrose agar (SDA): Brand: Hope Bio, article number: HB0253-81 • Voriconazole: Brand: Adamas, article number: 22105A • Amphotericin B: Brand: AbCam, article number: ab141199
MIC test was conducted in accordance with the guidelines and requirements of CLSI M27 (for yeasts) and M38 (for Aspergillus).
Strain preparation: The strains were inoculated 1 day in advance by streaking on SDA plates with glycerol strains stored at −80° C. The strains were cultured at 35° C. and 40 to 60% humidity for 18 to 24 hours. Streak inoculation of Aspergillus fumigatus and Cryptococcus neoformans was required to be done 3 days and 2 days in advance, respectively.
Preparation of culture medium and compounds: The liquid culture medium RPMI was prepared with pure water, and 0.165 mol/L MOPS was added to adjust the pH to 7.0. The mixture was filtered with a 0.22 μm-membrane filter, sterilized, and stored at 4° C. (no more than 3 months). 0.85% physiological saline was sterilized at 121° C. for 30 min and then stored at room temperature (no more than 1 week). The compounds were dissolved in DMSO to 12.8 mg/mL and stored at −20° C.
For Aspergillus, 5 mL of physiological saline was added to cover the mycelium, and the spores were gently scraped off with a spreader. The spore suspension was then transferred to a sterile test tube. An appropriate amount of spore suspension was taken and counted under a microscope using a hemocytometer. Spore concentration was adjusted to approximately 0.4 to 5×10^4 spores/mL using RPMI1640 medium.
The compound was diluted to the highest 800 μg/mL (or 400 μg/mL) with DMSO, and a 10-step 2-fold gradient dilution was performed, resulting in 11 concentrations. 2 μL of the gradient-diluted compound was transferred to the corresponding wells of a 96-well plate, and then 198 μL of the inoculum was transferred to the test plate. The plate was incubated at 35° C. for 24 hours (Aspergillus fumigatus and Cryptococcus neoformans were incubated for 48 and 72 hours, respectively).
After the incubation, the growth of the fungi was visually observed. The lowest concentration of the compound that inhibited the growth of yeast by 50% (inhibited Aspergillus by 100%) was defined as the minimum inhibitory concentration (MIC, μg/mL). A magnifying glass or reading at OD530 nm could be used to assist in determining the MIC. Photos were taken of the test plates for record keeping.

Regarding `CC(=O)N1CCN(c2ccc(OCC3COC(Cn4ccnc4)(c4ccc(Cl)cc4Cl)O3)cc2)CC1` (stereo not drawn) [ketoconazole], the “exposure to ketoconazole, monotherapy group vs combination therapy group” value in data set [1] is “not significantly different”.
Turning to `OCC(F)(F)COc1ccc(C23CC(C(F)(F)[C@](O)(Cn4cnnn4)c4ccc(F)cc4F)(C2)C3)cc1` [Compound 50A], the MIC (in general, the lowest concentration found to suppress growth) in data set [2] worked out at 0.0078 µg/mL (≈ 0.0148 µM); in data set [3] it was 2 µg/mL (≈ 3.78 µM).
As to `O[C@H](COc1ccc(C23CC(C(F)(F)[C@](O)(Cn4cncn4)c4ccc(F)cc4F)(C2)C3)cn1)C(F)(F)F` [Compound 98A], the “MIC Candida albicans ATCC MYA-2876” value in data set [2] was not above 0.0039 µg/mL. In addition, the “MIC Aspergillus fumigatus ATCC MYA-4609” value in data set [3] was determined as 1 µg/mL (≈ 1.83 µM).
On to `OC1(COc2ccc(C34CC(C(F)(F)C(O)(Cn5cnnn5)c5ccc(F)cc5F)(C3)C4)cc2)CC(F)(F)C1` (stereo not drawn) [Compound 149], for which the MIC in data set [2] was not above 0.0039 µg/mL; in data set [3], 8 µg/mL (≈ 14.4 µM).
For the compound `O[C@H](COc1ccc(C23CC(C(F)(F)[C@](O)(Cn4cnnn4)c4ccc(F)cc4F)(C2)C3)cc1)C1CC1` (relative stereo) [Compound 144A], the MIC was not above 0.0039 µg/mL in data set [2] and 2 µg/mL (≈ 3.86 µM) in data set [3].
As to `O[C@@](Cn1cnnn1)(c1ccc(F)cc1F)C(F)(F)C12CC(c3ccc(O[C@H]4CCOC4)cc3)(C1)C2` [Compound 41A], the “MIC Candida albicans ATCC MYA-2876” value in data set [2] was not above 0.0039 µg/mL. Moreover, in data set [3], the “MIC Aspergillus fumigatus ATCC MYA-4609” value came out at 8 µg/mL (≈ 15.9 µM).
In the case of `O[C@H](COc1ccc(C23CC(CC(O)(Cn4cncn4)c4ccc(F)cc4F)(C2)C3)cc1)C(F)(F)F` (stereo partly drawn) [Compound 90], the MIC in data set [2] was not above 0.0039 µg/mL; in data set [3] it was 0.5 µg/mL (≈ 0.981 µM).
The like results for `CC(C)(O)COc1ccc(C23CC(C(F)(F)C(O)(Cn4cnnn4)c4ccc(F)cc4F)(C2)C3)cc1` (stereo not drawn) [Compound 36] were, in that order, not above 0.0039 µg/mL and 8 µg/mL (≈ 15.8 µM).
`N#Cc1ccc(C23CC(C(F)(F)C(O)(Cn4cncn4)c4ccc(F)cc4F)(C2)C3)cn1` (stereo not drawn) [Compound 128]: in data set [2], the “MIC Candida albicans ATCC MYA-2876” value stood at 0.0078 µg/mL (≈ 0.0176 µM). Also, in data set [3], the “MIC Aspergillus fumigatus ATCC MYA-4609” value is 4 µg/mL (≈ 9.02 µM).
In the same order, the values of `O[C@@H](COc1ccc(C23CC(C(F)(F)[C@](O)(Cn4cnnn4)c4ccc(F)cc4F)(C2)C3)cc1)C(F)(F)F` [Compound 51B] are 0.0078 µg/mL (≈ 0.0143 µM) and 4 µg/mL (≈ 7.32 µM).
With `O[C@@](Cn1cncn1)(c1ccc(F)cc1F)C(F)(F)C12CC(c3ccc(OCC(F)(F)F)cc3)(C1)C2` (stereo in doubt) [Compound 2A], the MIC in data set [2] was not above 0.0039 µg/mL; in data set [3], 1 µg/mL (≈ 1.94 µM).
In the same order, the values of `OC(Cn1cncn1)(c1ccc(F)cc1F)C(F)(F)C12CC(c3ccc(OCC(F)F)cc3)(C1)C2` (stereo not drawn) [Compound 23] are not above 0.0039 µg/mL and 1 µg/mL (≈ 2.01 µM).
The like results for `O[C@@](Cn1cnnn1)(c1ccc(F)cc1F)C(F)(F)C12CC(c3ccc(OCC(F)F)cc3)(C1)C2` [Compound 22A] were, in that order, 0.0078 µg/mL (≈ 0.0156 µM) and 2 µg/mL (≈ 4.01 µM).
For the compound `OC(Cn1cncn1)(c1ccc(F)cc1F)C(F)(F)C12CC(c3ccc(OC(F)F)cc3)(C1)C2` (stereo not drawn) [Compound 81], the values for the MIC in data set [2] and in data set [3] were not above 0.0039 µg/mL and 1 µg/mL (≈ 2.07 µM), respectively.
The like results for `O[C@H](COc1ccc(C23CC(C(F)(F)[C@](O)(Cn4cncn4)c4ccc(F)cc4F)(C2)C3)cc1)C(F)(F)F` (relative stereo) [Compound 132A] were, in that order, not above 0.0039 µg/mL and 0.5 µg/mL (≈ 0.917 µM).
Turning to `O[C@H](COc1ccc(C23CC(C(F)(F)[C@@](O)(Cn4cncn4)c4ccc(F)cc4F)(C2)C3)cn1)C(F)(F)F` [Compound 98B], the “MIC Candida albicans ATCC MYA-2876” value in data set [2] was not above 0.0039 µg/mL. In data set [3], the “MIC Aspergillus fumigatus ATCC MYA-4609” value is 2 µg/mL (≈ 3.66 µM).
With `O[C@@](Cn1cnnn1)(c1ccc(F)cc1F)C(F)(F)C12CC(c3ccc(COC(F)F)cc3)(C1)C2` (stereo in doubt) [Compound 159A], the MIC was not above 0.0039 µg/mL in data set [2] and 2 µg/mL (≈ 4.01 µM) in data set [3].
Consider `CC(C12CC(c3ccc(OC[C@H](O)C(F)(F)F)cc3)(C1)C2)C(O)(Cn1cncn1)c1ccc(F)cc1F` (stereo in doubt) [Compound 125], for which the results for the MIC in data set [2] and in data set [3] were not above 0.0039 µg/mL and 1 µg/mL (≈ 1.91 µM), respectively.
The like results for `CNC(=O)COc1ccc(C23CC(C(F)(F)C(O)(Cn4cncn4)c4ccc(F)cc4F)(C2)C3)cc1` (stereo not drawn) [Compound 35] were, in that order, not above 0.0039 µg/mL and 2 µg/mL (≈ 3.96 µM).
On to `O[C@H](COc1ccc(C23CC(C(F)(F)[C@](O)(Cn4cnnn4)c4ccc(F)cc4F)(C2)C3)cc1F)C(F)(F)F` [Compound 134A], for which the values for the minimal inhibitory concentration (MIC) in data set [2] and in data set [3] were not above 0.0039 µg/mL and 2 µg/mL (≈ 3.54 µM), respectively.
